# Patent US11535597B2, “Photoreactive ligands and uses thereof” (The Scripps Research Institute, priority 2017, dated 2022)
# Target: PTGR2 (Homo sapiens, UniProt Q8N8N7)
# Experiment: MS-based (SILAC) competition of FFF probe 8 labeling of endogenous PTGR2 in HEK293T cells
# Type: binding
# Protocol: For gel-based experiments, cells were grown in 6-well plates to ˜90% confluence at the time of treatment. Cells were carefully washed with Dulbecco's phosphate buffered saline (DPBS) and replenished with fresh serum-free media containing indicated FFF probe, and, if applicable, competitors or DMSO vehicle (1 mL). Following incubation at 37° C. for 30 min, cells were directly exposed to 365 nm light for 10 min. For no UV experiments, cells were incubated at 4° C. for 10 min under ambient light. For MS-based experiments, cell labeling was performed in a similar manner as described above. Modifications to this protocol included using isotopically ‘light’ and ‘heavy’ SILAC cells that were grown to near complete confluence prior to treatment in 10 cm plates. In probe-versus-control probe and probe-versus-probe experiments, isotopically light cells were treated with indicated fragment probe, while the heavy cells were treated with control probe (1), or additional FFF probe to be compared, at indicated concentrations. […]
# Cells pellets were lysed in cold DPBS (100-500 µL) using a Branson Sonifier probe sonicator (10 pulses, 30% duty cycle, output setting=4). […] Protein concentration was determined using the DC Protein Assay (Bio-Rad) and absorbance read using a Tecan, Infinite F500 plate reader following manufacturer's instructions. […]
# Chain of PTGR2 (Q8N8N7 whole entry): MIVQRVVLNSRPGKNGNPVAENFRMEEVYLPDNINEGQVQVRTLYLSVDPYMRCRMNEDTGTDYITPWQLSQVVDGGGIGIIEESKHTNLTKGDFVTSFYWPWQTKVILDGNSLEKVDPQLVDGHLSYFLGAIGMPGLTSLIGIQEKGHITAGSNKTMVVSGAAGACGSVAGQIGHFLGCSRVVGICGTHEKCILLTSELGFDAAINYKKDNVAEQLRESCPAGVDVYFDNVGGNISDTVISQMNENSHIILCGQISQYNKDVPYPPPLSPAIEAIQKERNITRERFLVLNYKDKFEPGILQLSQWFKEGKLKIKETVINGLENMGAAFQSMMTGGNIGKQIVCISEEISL
smiles,measurement,setting,value
"COc1ccccc1N1CCN(C(=O)Cc2ccccc2)CC1 [Compound 22, 1-(4-(2-Methoxyphenyl)piperazin-1-yl)-2-phenylethan-1-one]",inhibition at 0.5 µM,500 nM,~80%
same,inhibition of FFF 8 labeling of endogenous PTGR2,5 μM,complete inhibition
